Data taken from patent US20250074891A1 (Anaxis Pharma Pty Ltd., priority 2021, published 2025).

Legend:
Conditions in all cases: Table 35
RIP1 = RIP1 (Homo sapiens (Human), UniProt Q13546); test: KINOMEscan binding assay, RIP1
RIP3 = RIP3 (Homo sapiens (Human), UniProt Q9Y572); test: KINOMEscan binding assay, RIP3
Description: (§1) Kinase assays. For most assays, kinase-tagged T7 phage strains were grown in parallel in 24-well blocks in an E. coli host derived from the BL21 strain. E. coli were grown to log-phase and infected with T7 phage from a frozen stock (multiplicity of infection=0.4) and incubated with shaking at 32° C. until lysis (90-150 minutes).
(§2) The Hill Slope was set to −1.

MLKL (full length) = MLKL (full length) (Homo sapiens (Human), UniProt Q8NB16); test: KINOMEscan binding assay, MLKL (full length)
Description: as §1, §2

Chain of RIP1 (Q13546 whole entry): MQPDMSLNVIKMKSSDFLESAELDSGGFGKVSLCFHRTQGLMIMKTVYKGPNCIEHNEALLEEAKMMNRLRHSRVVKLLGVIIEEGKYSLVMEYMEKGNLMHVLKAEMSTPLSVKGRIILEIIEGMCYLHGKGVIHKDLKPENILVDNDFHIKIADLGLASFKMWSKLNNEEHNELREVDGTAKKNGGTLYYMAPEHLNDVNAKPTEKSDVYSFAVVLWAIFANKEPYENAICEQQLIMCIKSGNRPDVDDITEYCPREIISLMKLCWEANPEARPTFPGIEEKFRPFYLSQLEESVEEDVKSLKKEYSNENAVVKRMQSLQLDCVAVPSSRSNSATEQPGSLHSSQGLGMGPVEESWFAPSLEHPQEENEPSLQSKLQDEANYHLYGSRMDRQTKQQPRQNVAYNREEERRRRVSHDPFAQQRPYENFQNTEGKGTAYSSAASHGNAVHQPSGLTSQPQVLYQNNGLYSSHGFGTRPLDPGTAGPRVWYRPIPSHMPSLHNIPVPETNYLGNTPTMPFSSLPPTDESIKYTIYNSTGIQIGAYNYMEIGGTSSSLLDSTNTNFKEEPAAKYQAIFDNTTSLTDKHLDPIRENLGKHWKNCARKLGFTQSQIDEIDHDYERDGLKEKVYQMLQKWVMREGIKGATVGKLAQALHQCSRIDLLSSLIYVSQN
Chain of MLKL (full length) (Q8NB16 whole entry): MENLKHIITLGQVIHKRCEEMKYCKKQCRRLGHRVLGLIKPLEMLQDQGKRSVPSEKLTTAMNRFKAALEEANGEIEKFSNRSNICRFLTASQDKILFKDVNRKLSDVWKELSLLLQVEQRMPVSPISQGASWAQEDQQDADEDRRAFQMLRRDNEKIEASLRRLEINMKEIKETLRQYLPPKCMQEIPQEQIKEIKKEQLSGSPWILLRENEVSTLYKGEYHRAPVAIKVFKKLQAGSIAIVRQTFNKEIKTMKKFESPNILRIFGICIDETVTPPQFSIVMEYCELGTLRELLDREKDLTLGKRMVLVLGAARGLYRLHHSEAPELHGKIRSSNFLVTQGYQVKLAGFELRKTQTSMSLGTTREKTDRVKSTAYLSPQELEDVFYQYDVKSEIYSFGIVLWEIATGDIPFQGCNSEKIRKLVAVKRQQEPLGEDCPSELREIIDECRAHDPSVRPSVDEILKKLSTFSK
Chain of RIP3 (Q9Y572 whole entry): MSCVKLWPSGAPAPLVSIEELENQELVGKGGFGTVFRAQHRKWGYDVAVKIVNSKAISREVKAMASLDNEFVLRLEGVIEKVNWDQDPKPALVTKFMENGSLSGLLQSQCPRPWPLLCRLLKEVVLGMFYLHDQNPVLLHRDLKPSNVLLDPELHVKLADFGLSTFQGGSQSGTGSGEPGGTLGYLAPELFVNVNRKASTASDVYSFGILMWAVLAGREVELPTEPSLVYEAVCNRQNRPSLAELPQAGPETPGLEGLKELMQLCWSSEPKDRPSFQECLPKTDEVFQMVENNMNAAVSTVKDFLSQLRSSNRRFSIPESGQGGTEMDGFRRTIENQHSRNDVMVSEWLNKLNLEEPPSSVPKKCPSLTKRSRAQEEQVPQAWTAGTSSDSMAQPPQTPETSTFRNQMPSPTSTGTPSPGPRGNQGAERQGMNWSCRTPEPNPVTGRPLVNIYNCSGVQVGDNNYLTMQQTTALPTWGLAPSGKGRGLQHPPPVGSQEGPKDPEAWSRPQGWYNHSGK

Row | Kd (RIP1) [µM] | Kd (RIP3) [µM] | Kd (MLKL (full length)) [µM] | SMILES
1 | > 30 | > 30 | – | NC(=O)c1c(-c2ccc(NS(=O)(=O)CC3CCC3)cc2)n[nH]c1Nc1cnccn1 [Compound 81, 3-(4-((cyclobutylmethyl)sulfonamido)phenyl)-5-(pyrazin-2-ylamino)-1H-pyrazole-4-carboxamide]
2 | – | > 30 | – | CCS(=O)(=O)Nc1ccc(-c2n[nH]c(Nc3cnccn3)c2C(N)=O)cc1OCc1c(C)cc(F)cc1C [Compound 142, 3-(4-(ethylsulfonamido)-3-((4-fluoro-2,6-dimethylbenzyl)oxy)phenyl)-5-(pyrazin-2-ylamino)-1H-pyrazole-4-carboxamide]
3 | > 30 | > 30 | – | CCS(=O)(=O)Nc1ccc(-c2n[nH]c(Nc3cc(C)ncc3F)c2C(N)=O)cc1 [Compound 111, 3-(4-(ethylsulfonamido)phenyl)-5-((5-fluoro-2-methylpyridin-4-yl)amino)-1H-pyrazole-4-carboxamide]
4 | > 30 | > 30 | – | CCS(=O)(=O)Nc1ccc(-c2n[nH]c(Nc3cccc(C(F)(F)F)n3)c2C(N)=O)cc1OCc1cccc(Cl)c1 [Compound 3, 3-(3-((3-chloro-benzyl)oxy)-4-(ethylsulfon-amido)phenyl)-5-((6-(trifluoro-methyl)pyridin-2-yl)amino)-1H-pyrazole-4-carboxamide]
5 | > 30 | > 30 | – | C[C@H](Oc1cc(NS(=O)(=O)C(F)F)ccc1-c1n[nH]c(Nc2cnccn2)c1C(N)=O)c1ccc(F)cc1 [Compound 243, 3-[4-(difluoromethanesulfonamido)-2-[(1 S)-1-(4-fluorophenyl)ethoxy]phenyl]-5-[(pyrazin-2-yl)amino]-1H-pyrazole-4-carboxamide]
6 | > 30 | > 30 | – | CCS(=O)(=O)Nc1ccc(-c2n[nH]c(Nc3cnccn3)c2C(N)=O)cc1OCc1cccc(OC(F)(F)F)c1 [Compound 214, 3-(4-(ethylsulfonamido)-3-((3-(trifluoromethoxy)benzyl)oxy)phenyl)-5-(pyrazin-2-ylamino)-1H-pyrazole-4-carboxamide]
7 | > 30 | > 30 | – | NC(=O)c1c(-c2ccc(NS(=O)(=O)CCC(F)(F)F)c(OCc3ccc(F)cc3)c2)n[nH]c1Nc1cccc(C(F)(F)F)n1 [Compound 182, 3-(3-((4-fluorobenzyl)oxy)-4-((3,3,3-trifluoropropyl)sulfonamido)phenyl)-5-((6-(trifluoromethyl)pyridine-2-yl)amino)-1H-pyrazole-4-carboxamide]
8 | – | > 30 | – | CCS(=O)(=O)Nc1ccc(-c2n[nH]c(Nc3ccccn3)c2C(N)=O)cc1OCC1CCCC1 [Compound 36, 3-(3-(cyclopentyl-methoxy)-4-(ethylsulfon-amido)phenyl)-5-(pyridin-2-ylamino)-1H-pyrazole-4-carboxamide]
9 | > 30 | > 30 | – | COCCS(=O)(=O)Nc1ccc(-c2n[nH]c(Nc3cccc(C(F)(F)F)n3)c2C(N)=O)cc1 [Compound 50, 3-(4-((2-methoxyethyl)sulfonamido)phenyl)-5-((6-(trifluoromethyl)pyridin-2-yl)amino)-1H-pyrazole-4-carboxamide]
10 | > 30 | > 30 | – | COc1ccc(S(=O)(=O)Nc2ccc(-c3n[nH]c(Nc4cnccn4)c3C(N)=O)cc2)cc1 [Compound 82, 3-(4-((4-methoxyphenyl)sulfonamido)phenyl)-5-(pyrazin-2-ylamino)-1H-pyrazole-4-carboxamide]
11 | > 30 | > 30 | – | C[C@H](Oc1cc(NS(=O)(=O)CC(F)(F)F)ccc1-c1n[nH]c(Nc2cnccn2)c1C(N)=O)c1ccc(F)cc1 [Compound 244, 3-{2-[(1S)-1-(4-fluorophenyl)ethoxy]-4-(2,2,2-trifluoroethanesulfonamido)phenyl}-5-[(pyrazin-2-yl)amino]-1H-pyrazole-4-carboxamide]
12 | > 30 | > 30 | – | C[C@@H](Oc1cc(NS(=O)(=O)CC(F)(F)F)ccc1-c1n[nH]c(Nc2cnccn2)c1C(N)=O)c1ccc(F)cc1 [Compound 254, 3-{2-[(1R)-1-(4-fluorophenyl)ethoxy]-4-(2,2,2-trifluoroethanesulfonamido)phenyl}-5-[(pyrazin-2-yl)amino]-1H-pyrazole-4-carboxamide]
13 | > 30 | > 30 | – | CCS(=O)(=O)Nc1ccc(-c2n[nH]c(Nc3cccc(C(F)(F)F)n3)c2C(N)=O)c(OCc2ccc(F)cc2)c1 [Compound 141, 3-(4-(ethylsulfonamido)-2-((4-fluorobenzyl)oxy)phenyl)-5-((6-(trifluoromethyl)pyridine-2-yl)amino)-1H-pyrazole-4-carboxamide]
14 | > 30 | > 30 | – | Cc1ccc(CS(=O)(=O)Nc2ccc(-c3n[nH]c(Nc4ccccn4)c3C(N)=O)cc2)cc1 [Compound 132, 5-(pyridin-2-ylamino)-3-(4-((p-tolylmethyl)sulfonamido)phenyl)-1H-pyrazole-4-carboxamide]
15 | > 30 | – | < 0.01 | CCS(=O)(=O)Nc1ccc(-c2n[nH]c(Nc3ccc(OC)nc3)c2C(N)=O)cc1OCc1ccc(F)cc1 [Compound 197, 3-(4-(ethylsulfonamido)-3-((4-fluorobenzyl)oxy)phenyl)-5-((6-methoxypyridin-3-yl)amino)-1H-pyrazole-4-carboxamide]
16 | > 30 | – | < 0.01 | NC(=O)c1c(-c2ccc(NS(=O)(=O)CC(F)(F)F)cc2)n[nH]c1Nc1cccc(C(F)(F)F)n1 [Compound 43, 3-(4-((2,2,2-trifluoroethyl)sulfonamido)phenyl)-5-((6-(trifluoromethyl)pyridin-2-yl)amino)-1H-pyrazole-4-carboxamide]
17 | > 30 | > 30 | – | CCS(=O)(=O)Nc1ccc(-c2n[nH]c(Nc3cccc(C(F)(F)F)n3)c2C(N)=O)cc1OCc1ccc(Cl)cc1 [Compound 4, 3-(3-((4-chloro-benzyl)oxy)-4-(ethylsulfon-amido)phenyl)-5-((6-(trifluoro-methyl)pyridin-2-yl)amino)-1H-pyrazole-4-carboxamide]
18 | > 30 | > 30 | – | C[C@@H](Oc1cc(NS(=O)(=O)C(F)F)ccc1-c1n[nH]c(Nc2cnccn2)c1C(N)=O)c1ccc(F)cc1 [Compound 255, 3-[4-(difluoromethanesulfonamido)-2-[(1R)-1-(4-fluorophenyl)ethoxy]phenyl]-5-[(pyrazin-2-yl)amino]-1H-pyrazole-4-carboxamide]
19 | > 30 | – | < 0.01 | CCS(=O)(=O)Nc1ccc(-c2n[nH]c(Nc3cnc(C(C)C)cn3)c2C(N)=O)cc1 [Compound 66, 3-(4-(ethylsulfonamido)phenyl)-5-((5-isopropylpyrazin-2-yl)amino)-1H-pyrazole-4-carboxamide]
20 | > 30 | – | < 0.01 | CCS(=O)(=O)Nc1ccc(-c2n[nH]c(Nc3cccc(OC)n3)c2C(N)=O)cc1 [Compound 107, 3-(4-(ethylsulfonamido)phenyl)-5-((6-methoxypyridin-2-yl)amino)-1H-pyrazole-4-carboxamide]
21 | – | > 30 | – | Cc1ccc(CS(=O)(=O)Nc2ccc(-c3n[nH]c(Nc4cccc(C(F)(F)F)n4)c3C(N)=O)cc2)cc1 [Compound 57, 3-(4-((p-tolylmethyl)sulfonamido)phenyl)-5-((6-(trifluoromethyl)pyridin-2-yl)amino)-1H-pyrazole-4-carboxamide]
22 | > 30 | – | < 0.01 | NC(=O)c1c(-c2ccc(NS(=O)(=O)CCC(F)(F)F)cc2)n[nH]c1Nc1cccc(C(F)(F)F)n1 [Compound 189, 5-((6-(trifluoromethyl)pyridine-2-yl)amino)-3-(4-((3,3,3-trifluoropropyl)sulfonamido)phenyl)-1H-pyrazole-4-carboxamide]
23 | > 30 | – | < 0.01 | CCS(=O)(=O)Nc1ccc(-c2n[nH]c(Nc3ccnc(OC)c3)c2C(N)=O)cc1OCc1ccc(F)cc1 [Compound 18, 3-(4-(ethylsulfonamido)-3-((4-fluorobenzyl)oxy)phenyl) 5-((2-methoxypyridin-4-yl)amino)-1H-pyrazole-4-carboxamide]
24 | > 30 | – | < 0.01 | CCS(=O)(=O)Nc1ccc(-c2n[nH]c(Nc3ccc4ccccc4c3)c2C(N)=O)cc1 [Compound 86, 3-(4-(ethylsulfonamido)phenyl)-5-(naphthalen-2-ylamino)-1H-pyrazole-4-carboxamide]
25 | > 30 | – | < 0.01 | NC(=O)c1c(-c2ccc(NS(=O)(=O)C(F)F)cc2)n[nH]c1Nc1cccc(C(F)(F)F)n1 [Compound 53, 3-(4-((difluoromethyl)sulfonamido)phenyl)-5-((6-(trifluoromethyl)pyridin-2-yl)amino)-1H-pyrazole-4-carboxamide]
26 | – | > 30 | – | CCS(=O)(=O)Nc1ccc(-c2n[nH]c(NC)c2C(N)=O)cc1 [Compound 119, 3-(4-(ethylsulfonamido)phenyl)-5-(methylamino)-1H-pyrazole-4-carboxamide]
27 | > 30 | – | < 0.01 | CCS(=O)(=O)Nc1ccc(-c2n[nH]c(Nc3cnc(C)cn3)c2C(N)=O)cc1OCc1ccc(F)c(Cl)c1 [Compound 150, 3-(3-((3-chloro-4-fluorobenzyl)oxy)-4-(ethylsulfonamido)phenyl)-5-((5-methylpyrazin-2-yl)amino)-1H-pyrazole-4-carboxamide]
28 | > 30 | – | < 0.01 | COCCOc1cc(Nc2[nH]nc(-c3ccc(NS(C)(=O)=O)cc3)c2C(N)=O)ccn1 [Compound 122, 5-((2-(2-methoxyethoxy)pyridin-4-yl)amino)-3-(4-(methylsulfonamido)phenyl)-1H-pyrazole-4-carboxamide]

Row | SMILES | Kd (RIP1) [µM] | Kd (RIP3) [µM] | Kd (MLKL (full length)) [µM]
29 | CCS(=O)(=O)Nc1ccc(-c2n[nH]c(Nc3cnccn3)c2C(N)=O)cc1OCC(C)C [Compound 45, 3-(4-(ethylsulfonamido)-3-isobutoxyphenyl)-5-(pyrazin-2-ylamino)-1H-pyrazole-4-carboxamide] | – | > 30 | –
